Source: the supplement of paper PMC7600603

Key:
DLD1 NRF2-GOF [1] = assay: drug sensitivity score (DSS) viability (DSS score); higher = more sensitive; extreme values may be limits of the assay; settings: 72 h; CellTiter-Glo viability
How it was run: (§1)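 Cells grown in DMEM with 10% FBS were isogenic DLD1 colorectal cancer lines, NRF2 wild-type or CRISPR gain-of-function. In 384-well plates they received library compounds at 5 concentrations over a 10,000-fold range for 72 h before CellTiter-Glo readout on a Pherastar FS reader, normalised to vehicle wells and 100-μM positive-control wells. Dose-response fits used a four-parameter logistic model, from which EC50 and drug sensitivity score, a normalised area under the curve, were obtained.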

DLD1 NRF2-WT [2] = assay: as above; settings: 72 h; CellTiter-Glo viability
How it was run: as §1

DLD1 NRF2-GOF [3] = assay: drug sensitivity score (DSS) cytotoxicity (DSS score); higher = more toxic; extreme values may be limits of the assay; settings: 72 h; CellTox Green cytotoxicity
How it was run: (§2)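 In 384-well plates, isogenic DLD1 cells with NRF2 wild-type or CRISPR-edited status, grown in DMEM with 10% FBS, received library compounds at 5 concentrations spanning a 10,000-fold range. At 72 h, CellTox Green signals were read on a Pherastar FS reader and scaled between vehicle wells and 100-μM positive-control wells. Cytotoxicity endpoints, TC50 and a drug sensitivity score based on normalised area under the curve, came from logistic dose-response fits.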

DLD1 NRF2-WT [4] = assay: as above; settings: 72 h; CellTox Green cytotoxicity
How it was run: as §2

DLD1 NRF2-GOF [5] = settings: 72 h; CellTiter-Glo viability
How it was run: as §1

DLD1 NRF2-WT [6] = settings: 72 h; CellTiter-Glo viability
How it was run: as §1

DLD1 NRF2-GOF [7] = assay: TC50 cytotoxicity; higher = less toxic; settings: 72 h; CellTox Green cytotoxicity
How it was run: as §2

DLD1 NRF2-WT [8] = assay: TC50 cytotoxicity; higher = less toxic; settings: 72 h; CellTox Green cytotoxicity
How it was run: as §2

Row | Structure (SMILES) | drug sensitivity score (DLD1 NRF2-GOF [1]) | drug sensitivity score (DLD1 NRF2-WT [2]) | drug sensitivity score (DLD1 NRF2-GOF [3]) | drug sensitivity score (DLD1 NRF2-WT [4]) | EC50 viability (DLD1 NRF2-GOF [5]) [µM] | EC50 viability (DLD1 NRF2-WT [6]) [µM] | TC50 cytotoxicity (DLD1 NRF2-GOF [7]) [µM] | TC50 cytotoxicity (DLD1 NRF2-WT [8]) [µM]
1 | CC(C)(C)C[C@@H]1N[C@@H](C(=O)N[C@H]2CC[C@H](O)CC2)[C@H](c2cccc(Cl)c2F)[C@]12C(=O)Nc1cc(Cl)ccc12 | 1.5 | 4.4 | 0 | 0 | 3.61 | 1.93 | > 10 | > 10
2 | CCNC(=O)C[C@@H]1N=C(c2ccc(Cl)cc2)c2cc(OC)ccc2-n2c(C)nnc21 | 0.1 | 5.2 | 0 | 0 | > 10 | 1.09 | > 10 | > 10
3 | CC[C@@H]1[C@H](F)C(=O)N[C@@H]1COc1nccc2cc(C(N)=O)c(OC)cc12 | 2.4 | 0.5 | 0 | 0 | > 10 | > 10 | > 10 | > 10
4 | CCc1cncnc1N1CCN(Cc2nc3cc(C(F)(F)F)ccc3[nH]2)CC1 | 3 | 4.6 | 0 | 0 | 1.53 | 1.51 | > 10 | > 10
5 | CCn1c(-c2nonc2N)nc2c(C#CC(C)(C)O)ncc(OC[C@H]3CCCNC3)c21 | 2.4 | 4.3 | 0 | 0 | 2.87 | 1.5 | > 10 | > 10
6 | CCn1cc(-c2ccnc3[nH]c(-c4cccc(CN(C)C)c4)cc23)c(-c2ccc(NC(=O)N(C)C)cc2)n1 | 4.4 | 2.8 | 1.6 | 0 | 0.0452 | 0.172 | > 1 | > 1
7 | CN(c1ncccc1CNc1nc(Nc2ccc3c(c2)CC(=O)N3)ncc1C(F)(F)F)S(C)(=O)=O | 4.1 | 6.7 | 0 | 0 | 3.7 | 2.29 | > 10 | > 10
8 | CN1CCN(C2CCC(n3cc(-c4ccc(Oc5ccccc5)cc4)c4c(N)ncnc43)CC2)CC1 (stereo unspecified) | 5.4 | 8.8 | 5.3 | 4.5 | 3.27 | 1.71 | 3.09 | 3.23
9 | CNC(=O)c1ccc(C)c(-n2c(C)cc(OCc3ccc(F)cc3F)c(Br)c2=O)c1 | 0 | 1.3 | 0 | 0 | > 1 | > 1 | > 1 | > 1
10 | CNc1ncc2cc(-c3cc(NC(=O)NCCC(C)(C)C)c(F)cc3C)c(C)nc2n1 | 6.4 | 9.9 | 0 | 0 | 0.718 | 0.496 | > 10 | > 10
11 | C[C@@]1(C(=O)Nc2ccc(F)nc2)CCCN1c1nc(Nc2cc(C3CC3)n[nH]2)c2cccn2n1 | 14.8 | 13 | 11 | 6.3 | 0.279 | 0.252 | 0.319 | 0.326
12 | C[C@H]1Oc2cc(cnc2N)-c2c(nn(C)c2C#N)CN(C)C(=O)c2ccc(F)cc21 | 1.6 | 0 | 0 | 0 | > 1 | > 1 | > 1 | > 1
13 | Cc1ncc(Cl)cc1NCc1ccc(C(=O)N[C@@H](CC2CCCC2)C(=O)NC2CC2)s1 | 0 | 4 | 0 | 0 | > 5 | 0.401 | > 5 | > 5
14 | O=C(O)c1ccc(-c2c[nH]c3ncc(-c4ccccc4)cc23)cc1C1CCCC1 | 6.6 | 12.1 | 2 | 0.4 | 0.908 | 0.0381 | 3.47 | > 10
15 | COC12C(COC(N)=O)C3=C(C(=O)C(C)=C(N)C3=O)N1CC1NC12 (stereo in doubt) [Mitomycin C] | 4 | 0 | 0 | 0 | 1.7 | > 10 | > 10 | > 10
16 | Cn1cc(C[C@@H](N)C(=O)O)c2ccccc21 [1-methyl-D-tryptophan] | 3.2 | 2.3 | 0 | 0 | 0.552 | 0.874 | > 5 | > 5
17 | Nc1ncnc2c1nc(N)n2[C@@H]1O[C@H](CO)[C@@H](O)[C@H]1O [8-amino-adenosine] | 18.2 | 20 | 11.2 | 11.8 | 1.5 | 1.07 | 5.2 | 4.71
18 | Nc1ncnc2c1nc(Cl)n2[C@@H]1O[C@H](CO)[C@@H](O)[C@H]1O [8-chloro-adenosine] | 15.2 | 16.6 | 0.2 | 0 | 1.31 | 1.15 | > 50 | > 50
19 | COc1cc2c(cc1OCCCN1CCCC1)N=C(N)C21CCC1 [A-366] | 0 | 0 | 0 | 0 | > 25 | > 25 | > 25 | > 25
20 | COCCOc1cnc2ccn([C@H](C)c3nnc4c(F)cc(-c5cnn(C)c5)cn34)c(=O)c2c1 [AMG-337] | 6.6 | 4.2 | 0 | 0 | 0.27 | 0.543 | > 10 | > 10
21 | COCC1(CO)C(=O)C2CCN1CC2 (stereo unspecified) [APR-246] | 0 | 4.5 | 0 | 0 | > 10 | > 10 | > 10 | > 10
22 | CC(C)[C@H](C(=O)Nc1ccc(C(=O)NO)cc1)c1ccccc1 [AR-42] | 5.7 | 9.4 | 0 | 4 | 1.73 | 1.26 | > 10 | 1.97
